{"source": "patent US8466154B2", "about": "“Methods and compositions related to wrapping of dehydrons” (The Board of Regents of the University of Texas System, priority 2006, dated 2013)", "key": {"solubility (observation)": {"experiment": "solubility (observation)", "format": "physicochemical"}, "K562 cells": {"test_system": "K562 cells", "experiment": "Alamar blue proliferation assay of liposomal WBZ—1 formulations", "format": "cell-based", "details": "calculated from previous experiments with a similar system", "description": "FIG. 12. K562 cells derived from chronic myeloid leukemia (CML) tumors and treated with WBZ—1 liposomal formulation using drug:lipid ratio 1:10. Cells were plated in a 96 well plate at a concentration of 10,000 cells per well and were treated 2 hours later. After 48 hours incubation, an Alamar blue assay was performed. Cells proliferation was expressed as the percentage of proliferating cells compared to the untreated. […] (*) This concentration is the maximum uptake that was calculated based on previous work using a similar system (Tari, 1996). The actual cellular uptake can be considerable lower, even 10^−3 times the effective concentration. The inventors can determine the exact uptake in future experiments using a radiolabeled lipid and prototype compound.\nThis modification should lead to a selective inhibition of the Bcr-Abl kinase, and indeed it does. […] In order to determine the best lipid formulation to be used, the inventors tested different WBZ—1:MDPC ratios. […] Cell proliferation inhibition was determined by Alamar blue assay after 48 hours of incubation and calculated as percentage of inhibition comparing with the untreated control. All formulations were nontoxic for the cells and a dose response curve was observed. The effective concentration ranges between 0.1 and 1 μM regardless of the lipid:drug ratio used. […]"}, "JNK1/2": {"test_system": "JNK1/2", "experiment": "Western blot of phosphorylated kinases in neonatal rat ventricular myocytes (NRVM)", "format": "cell-based", "details": "1-50 μM, 24 h, compared to untreated cells"}, "[1]": {"test_system": "brain natriuretic peptide (BNP)", "experiment": "RT-PCR of BNP mRNA in left ventricle of treated mice", "details": "GIST model mice after therapy"}, "C-Kit": {"target": "T1, C-Kit (Homo sapiens, UniProt P10721, K642E)", "T1 construct": "endogenous in cells; host or cells: ST882 (GIST882) cells", "experiment": "Western blot of C-Kit phosphorylation (Tyr703, Tyr721) in ST882 cells", "format": "cell-based", "details": "6 hours, read-out: inhibitory impact on C-Kit phosphorylation in GIST cells", "description": "A Western blot assay on treated cancer-derived cell lines (FIGS. 8C and 8D) was performed to determine the in-cell specificity of WBZ—4. […] After allowing the cells to attach for 24 hours, the cells were treated with 1 μM of WBZ—4 or Gleevec for 6 hours. For Western blotting, 50 μg of total protein were separated on a SDS-PAGE (Bio-Rad) and blotted onto nitrocellulose membranes (Bio-Rad Laboratories, Life Science Research, Hercules, Calif.). Antibodies used: anti phospho-c-Kit polyclonal antibody, Tyr703 and Tyr721 (Zymed Laboratories Inc., South San Francisco, Calif.), anti-c-Kit monoclonal antibody (E-1): sc-17806 (Santa Cruz Biotechnology) and anti β-actin monoclonal antibody (Sigma, St. Louis, Mo.). K562 cells were plated at 5×10^5 cells/well. […] Antibodies used: anti phospho-c-Abl (Tyr 412) monoclonal antibody 247C7 (Cell Signalling Technology Inc), anti-Abl monoclonal antibody (Sigma, St. Louis, Mo.)."}, "ERK1/2": {"test_system": "ERK1/2", "experiment": "Western blot of phosphorylated kinases in neonatal rat ventricular myocytes (NRVM)", "format": "cell-based", "details": "1-50 μM, 24 h, compared to untreated cultures", "description": "This protective role of WBZ—4 has also been validated in vivo. Animals used in these studies were handled in accordance with National Institutes of Health “Guide for the Care and Use of Laboratory Animals” [Department of Health and Human Services Publication No. (NIH) 85-23, Revised 1985]. […] NRVM were isolated from the hearts of 2 day-old Sprague-Dawley rat pups via collagenase digestion as previously described (Samarel and Engelmann, 1991). Dissociated cells were pre-plated for 1 hour in serum-free PC-1 medium to selectively remove nonmuscle cells. Myocytes were then plated in PC-1 medium at a density of 1600 cells per mm^2 onto collagen-coated, plastic 35-mm dishes, and left undisturbed in a 5% CO2 incubator for 24 h. Unattached cells were removed by aspiration, and the attached cells were maintained in a solution of DMEM/Medium 199 (4:1) containing antibiotic/antimycotic solution for 24 h. […] NRVM were homogenized in lysis buffer (Schlaepfer and Hunter, 1996). Equal amounts of extracted proteins were separated on 10% SDS-polyacrylamide gels with 5% stacking gels. […] Primary antibody binding was detected with horseradish-peroxidase conjugated goat anti-mouse or goat anti-rabbit secondary antibody, and visualized by enhanced chemiluminescence."}, "PDK1": {"target": "T2, PDK1 (Homo sapiens, UniProt O15530)", "T2 sequence (O15530 1-556)": "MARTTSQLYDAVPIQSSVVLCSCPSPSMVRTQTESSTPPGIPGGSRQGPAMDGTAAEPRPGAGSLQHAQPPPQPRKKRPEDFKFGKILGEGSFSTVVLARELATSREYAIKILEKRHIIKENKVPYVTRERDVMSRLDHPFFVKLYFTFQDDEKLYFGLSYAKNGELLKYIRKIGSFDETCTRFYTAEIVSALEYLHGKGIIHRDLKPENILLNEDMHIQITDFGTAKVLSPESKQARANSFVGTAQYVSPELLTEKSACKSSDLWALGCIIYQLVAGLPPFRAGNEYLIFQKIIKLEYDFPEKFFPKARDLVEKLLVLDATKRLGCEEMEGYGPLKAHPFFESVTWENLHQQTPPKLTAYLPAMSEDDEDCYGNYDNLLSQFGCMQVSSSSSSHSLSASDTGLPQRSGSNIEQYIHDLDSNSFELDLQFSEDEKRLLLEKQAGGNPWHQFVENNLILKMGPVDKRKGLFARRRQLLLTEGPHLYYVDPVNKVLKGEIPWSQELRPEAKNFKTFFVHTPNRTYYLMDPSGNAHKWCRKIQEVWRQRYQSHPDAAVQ", "experiment": "kinetic spectrophotometric assay of phosphorylation rate", "format": "biochemical", "source_text": "(§1) To assess the specificity and affinity for Src, the staurosporine derivative is compared with the parental compound. […] Kinetic spectrophotometric assays where performed as indicated above. These assays were geared at measuring the phosphorylation rate of peptide substrates in the presence of the kinase inhibitor at different concentrations."}, "Src kinase": {"test_system": "Src kinase", "experiment": "kinetic spectrophotometric assay of phosphorylation rate", "format": "biochemical", "source_text": "as §1"}, "Chk1": {"target": "T3, Chk1 (Homo sapiens, UniProt O14757)", "T3 sequence (O14757 1-476)": "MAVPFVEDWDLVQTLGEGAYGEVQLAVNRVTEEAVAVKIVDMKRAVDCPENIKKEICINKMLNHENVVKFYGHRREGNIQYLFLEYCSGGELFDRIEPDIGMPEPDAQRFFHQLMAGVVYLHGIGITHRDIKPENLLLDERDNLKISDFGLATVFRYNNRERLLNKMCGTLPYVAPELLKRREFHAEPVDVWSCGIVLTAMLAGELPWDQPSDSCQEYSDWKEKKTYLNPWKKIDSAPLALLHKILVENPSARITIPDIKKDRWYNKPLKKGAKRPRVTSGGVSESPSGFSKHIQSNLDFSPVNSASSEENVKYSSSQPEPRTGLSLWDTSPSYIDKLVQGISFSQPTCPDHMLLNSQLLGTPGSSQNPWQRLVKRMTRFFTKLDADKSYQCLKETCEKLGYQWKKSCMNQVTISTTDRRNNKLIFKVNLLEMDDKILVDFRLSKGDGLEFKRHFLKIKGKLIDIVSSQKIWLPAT", "experiment": "kinetic spectrophotometric assay of phosphorylation rate", "format": "biochemical", "source_text": "as §1"}}, "data": [{"compound": "Cc1ccc(NC(=O)c2ccc(CN3CCN(C)CC3)cc2)cc1Nc1nccc(-c2cnccc2C)n1", "note": "[WBZ—1, N-{5-[4-(4-methylpiperazinemethyl)-benzoylamido]-2-methylphenyl}-4-[3-(4-methyl)-pyridyl]-2-pyrimidine amine]", "values": [{"measurement": "solubility", "setting": "solubility (observation)", "value": "insolubility"}, {"measurement": "uptake of WBZ—1 after 48 hours", "setting": "K562 cells", "value": 72, "unit": "pmol"}]}, {"compound": "Cc1ccc(NC(=O)c2ccc(CN3CCN(C)CC3)cc2)cc1Nc1nccc(-c2cccnc2)n1", "note": "[imatinib, reference compound]", "values": [{"measurement": "JNK1/2 activation in cardiomyocytes", "setting": "JNK1/2", "value": "activates JNKs"}, {"measurement": "BNP mRNA levels in the left ventricle, higher than untreated", "setting": "[1]", "value": "about 58%"}, {"measurement": "inhibition at 1 µM", "setting": "C-Kit", "value": "~85", "unit": "%"}, {"measurement": "phosphorylation state of ERK1/2 in cardiomyocytes", "setting": "ERK1/2", "value": "increased"}]}, {"compound": "CN[C@@H]1C[C@H]2O[C@@](C)([C@@H]1OC)n1c3ccccc3c3c4c(c5c6ccccc6n2c5c31)C(=O)N(C)C4", "note": "[methylated staurosporine derivative]", "values": [{"measurement": "inhibitory impact against PDK1", "setting": "PDK1", "value": "very low inhibitory impact"}, {"measurement": "inhibition of Src compared with staurosporine levels", "setting": "Src kinase", "value": "improved"}, {"measurement": "inhibitory impact against Chk1", "setting": "Chk1", "value": "very low inhibitory impact"}]}]}
